In US8450266B2 (Ipsen Pharma S.A.S., priority 2008, dated 2013):
Where a SMILES comes first, the peptide text is derived from it. [ ]: non-standard residue; d: D form. The star is where a group is joined. Decanoyl = CCCCCCCCCC(=O)*; Ac6c = NC1(C(=O)O)CCCCC1; Orn = NCCC[C@H](N)C(=O)O; X1 = CCCN1C(=O)CC(*)C1=O; Hexanoyl = CCCCCC(=O)*

Assays:
[1] = target: T1, human recombinant GIP receptor (Homo sapiens, UniProt P48546); assay: In vitro hGIP receptor binding assay ([125I]GIP displacement, CHO-K1 membranes)
T1 construct: expressed in transfected cells; host or cells: CHO-K1 clonal cells (membranes)
T1 sequence (P48546 22-466): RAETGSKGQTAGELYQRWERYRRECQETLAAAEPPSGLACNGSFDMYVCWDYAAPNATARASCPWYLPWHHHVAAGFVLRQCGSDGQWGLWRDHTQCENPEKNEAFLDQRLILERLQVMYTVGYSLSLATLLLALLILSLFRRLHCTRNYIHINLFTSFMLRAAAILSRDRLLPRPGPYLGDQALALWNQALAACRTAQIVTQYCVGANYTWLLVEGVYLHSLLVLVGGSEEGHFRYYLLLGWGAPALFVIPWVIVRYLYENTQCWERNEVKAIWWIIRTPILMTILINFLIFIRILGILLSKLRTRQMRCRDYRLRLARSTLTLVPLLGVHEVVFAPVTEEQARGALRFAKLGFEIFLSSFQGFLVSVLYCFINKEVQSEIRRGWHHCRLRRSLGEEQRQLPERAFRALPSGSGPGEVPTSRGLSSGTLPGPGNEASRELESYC
Source text: A. In Vitro hGIP Receptor Binding Assay

[2] = Human plasma half-life assay (LC-MS); assay type: in vitro ADME; details: incubated at 37° C., read-out: Human Plasma T½ (converted)
Summary of the method: (§1)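 Aliquots taken from human or rat plasma at time points up to 72 h, quenched with formic acid and acetonitrile, centrifuged. Supernatant analyzed by LC-MS (ESI, positive ion, full scan) on a C8 column with a water/acetonitrile 1% formic acid gradient.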

[3] = Rat plasma half-life assay (LC-MS); assay type: in vitro ADME; details: incubated at 37° C., read-out: Rat Plasma T½ (converted)
Summary of the method: as §1

CCCCCCCCCC(=O)NCCC[C@H](NC(=O)[C@H](CCCCN)NC(=O)[C@H](CCCCN)NC(=O)CNC(=O)[C@H](CCCCN)NC(=O)[C@H](CCC(N)=O)NC(=O)[C@H](C)NC(=O)[C@H](CC(C)C)NC(=O)[C@H](CC(C)C)NC(=O)[C@H](Cc1c[nH]c2ccccc12)NC(=O)[C@H](CC(N)=O)NC(=O)[C@@H](NC(=O)[C@H](Cc1ccccc1)NC(=O)[C@H](CC(=O)O)NC(=O)[C@H](CCC(N)=O)NC(=O)[C@H](CCC(N)=O)NC(=O)[C@H](Cc1c[nH]cn1)NC(=O)[C@@H](NC(=O)[C@H](CCCCN)NC(=O)[C@H](CC(=O)O)NC(=O)[C@H](CCSC)NC(=O)[C@H](C)NC(=O)[C@@H](NC(=O)[C@H](CO)NC(=O)[C@H](Cc1ccc(O)cc1)NC(=O)[C@H](CC(=O)O)NC(=O)[C@H](CO)NC(=O)C1(NC(=O)CCCCCCCCC)CCCCC1)[C@@H](C)CC)[C@@H](C)CC)C(C)C)C(=O)N[C@@H](CC(=O)O)C(=O)N[C@@H](Cc1c[nH]c2ccccc12)C(=O)N[C@@H](CCCCN)C(=O)N[C@@H](Cc1c[nH]cn1)C(=O)N[C@@H](CC(N)=O)C(=O)N[C@H](C(=O)N[C@H](C(=O)N[C@@H](CCC(N)=O)C(=O)O)[C@@H](C)O)[C@@H](C)CC [Example 21, [CH3-(CH2)8-C(O)-A6c^7, Orn^34(N-C(O)-(CH2)8-CH3)]hGIP(7-42)-OH] (Decanoyl-[Ac6c]SDYSIAMDKIHQQDFVNWLLAQKGKK[Orn](Decanoyl)DWKHNITQ-OH)
Ki [1]: 0.163 µM | half-life at 0.1 mg/mL [2]: 8 h | half-life at 0.1 mg/mL [3]: > 72 h

CCCCCC(=O)N[C@@H](CO)C(=O)N[C@@H](CC(=O)O)C(=O)N[C@@H](Cc1ccc(O)cc1)C(=O)N[C@@H](CO)C(=O)N[C@H](C(=O)N[C@@H](C)C(=O)N[C@@H](CCSC)C(=O)N[C@@H](CC(=O)O)C(=O)N[C@@H](CCCCN)C(=O)N[C@H](C(=O)N[C@@H](Cc1c[nH]cn1)C(=O)N[C@@H](CCC(N)=O)C(=O)N[C@@H](CCC(N)=O)C(=O)N[C@@H](CC(=O)O)C(=O)N[C@@H](Cc1ccccc1)C(=O)N[C@H](C(=O)N[C@@H](CC(N)=O)C(=O)N[C@@H](Cc1c[nH]c2ccccc12)C(=O)N[C@@H](CC(C)C)C(=O)N[C@@H](CC(C)C)C(=O)N[C@@H](C)C(=O)N[C@@H](CCC(N)=O)C(=O)N[C@@H](CCCCN)C(=O)N[C@@H](CSC1CC(=O)N(CCC)C1=O)C(=O)N[C@@H](CCCCN)C(=O)N[C@@H](CCCCN)C(=O)N[C@@H](CC(N)=O)C(=O)N[C@@H](CC(=O)O)C(=O)N[C@@H](Cc1c[nH]c2ccccc12)C(=O)N[C@@H](CCCCN)C(=O)N[C@@H](Cc1c[nH]cn1)C(=O)N[C@@H](CC(N)=O)C(=O)N[C@H](C(=O)N[C@H](C(=O)N[C@@H](CCC(N)=O)C(=O)O)[C@@H](C)O)[C@@H](C)CC)C(C)C)[C@@H](C)CC)[C@@H](C)CC (stereo partly shown) [Example 41, [CH3-(CH2)4-C(O)-Ser^8, Cys(Psu)^31]hGIP(8-42)-OH] (Hexanoyl-SDYSIAMDKIHQQDFVNWLLAQKC(X1)KKNDWKHNITQ-OH)
half-life at 0.1 mg/mL [2]: 5.9 h | half-life at 0.1 mg/mL [3]: 3.7 h

CCCC[C@H](NC(=O)[C@H](C)NC(=O)[C@@H](NC(=O)[C@H](CO)NC(=O)[C@H](Cc1ccc(O)cc1)NC(=O)[C@H](CC(=O)O)NC(=O)[C@H](CO)NC(=O)[C@@H](NC(=O)[C@H](Cc1ccccc1)NC(=O)[C@@H](NC(=O)CNC(=O)[C@@H]1CCCN1C(=O)CCc1ccc(O)cc1)[C@@H](C)O)[C@@H](C)CC)[C@@H](C)CC)C(=O)N[C@@H](CC(=O)O)C(=O)N[C@@H](CCCCN)C(=O)N[C@H](C(=O)N[C@@H](Cc1c[nH]cn1)C(=O)N[C@@H](CCC(N)=O)C(=O)N[C@@H](CCC(N)=O)C(=O)N[C@@H](CC(=O)O)C(=O)N[C@@H](Cc1ccccc1)C(=O)N[C@H](C(=O)N[C@@H](CC(N)=O)C(=O)N[C@@H](Cc1c[nH]c2ccccc12)C(=O)N[C@@H](CC(C)C)C(=O)N[C@@H](CC(C)C)C(=O)N[C@@H](C)C(=O)N[C@@H](CCC(N)=O)C(=O)N[C@@H](CCCCN)C(=O)NCC(=O)N[C@@H](CCCCN)C(=O)N[C@@H](CCCCN)C(=O)N[C@@H](CC(N)=O)C(=O)N[C@@H](CC(=O)O)C(=O)N[C@@H](Cc1c[nH]c2ccccc12)C(=O)N[C@@H](CCCCN)C(=O)N[C@@H](Cc1c[nH]cn1)C(=O)N[C@@H](CC(N)=O)C(=O)N[C@H](C(=O)N[C@H](C(=O)N[C@@H](CCC(N)=O)C(=O)O)[C@@H](C)O)[C@@H](C)CC)C(C)C)[C@@H](C)CC [Example 43, (4Hppa^2, Pro^3, Nle^14)hGIP(2-42)-OH]
half-life at 0.1 mg/mL [2]: > 53 h | half-life at 0.1 mg/mL [3]: 2.3 h

CC[C@H](C)[C@H](NC(=O)[C@H](CCCCN)NC(=O)[C@H](CC(=O)O)NC(=O)[C@H](CCSC)NC(=O)C(C)(C)NC(=O)[C@@H](NC(=O)[C@H](CO)NC(=O)[C@H](Cc1ccc(O)cc1)NC(=O)[C@H](CC(=O)O)NC(=O)[C@H](CO)NC(=O)[C@@H](NC(=O)[C@H](Cc1ccccc1)NC(=O)[C@@H](NC(=O)CNC(=O)[C@H](CCC(=O)O)NC(=O)CCc1ccc(O)cc1)[C@@H](C)O)[C@@H](C)CC)[C@@H](C)CC)C(=O)N[C@@H](Cc1c[nH]cn1)C(=O)N[C@@H](CCC(N)=O)C(=O)N[C@@H](CCC(N)=O)C(=O)N[C@@H](CC(=O)O)C(=O)N[C@@H](Cc1ccccc1)C(=O)N[C@H](C(=O)N[C@@H](CC(N)=O)C(=O)N[C@@H](Cc1c[nH]c2ccccc12)C(=O)N[C@@H](CC(C)C)C(=O)N[C@@H](CC(C)C)C(=O)N[C@@H](C)C(=O)N[C@@H](CCC(N)=O)C(=O)N[C@@H](CCCCN)C(=O)NCC(=O)N[C@@H](CCCCN)C(=O)N[C@@H](CCCCN)C(=O)N[C@@H](CC(N)=O)C(=O)N[C@@H](CC(=O)O)C(=O)N[C@@H](Cc1c[nH]c2ccccc12)C(=O)N[C@@H](CCCCN)C(=O)N[C@@H](Cc1c[nH]cn1)C(=O)N[C@@H](CC(N)=O)C(=O)N[C@H](C(=O)N[C@H](C(=O)N[C@@H](CCC(N)=O)C(=O)O)[C@@H](C)O)[C@@H](C)CC)C(C)C [Example 44, (4Hppa^2, Aib^13)hGIP(2-42)-OH)]
half-life at 0.1 mg/mL [2]: 48.8 h | half-life at 0.1 mg/mL [3]: 9.9 h

CC[C@H](C)[C@H](NC(=O)[C@H](CO)NC(=O)[C@H](Cc1ccc(O)cc1)NC(=O)[C@H](CC(=O)O)NC(=O)[C@H](CO)NC(=O)[C@@H](NC(=O)[C@H](Cc1ccccc1)NC(=O)[C@@H](NC(=O)CNC(=O)[C@H](CCC(=O)O)NC(=O)CCc1ccc(O)cc1)[C@@H](C)O)[C@@H](C)CC)C(=O)N[C@@H](C)C(=O)NC1(C(=O)N[C@@H](CC(=O)O)C(=O)N[C@@H](CCCCN)C(=O)N[C@H](C(=O)N[C@@H](Cc2c[nH]cn2)C(=O)N[C@@H](CCC(N)=O)C(=O)N[C@@H](CCC(N)=O)C(=O)N[C@@H](CC(=O)O)C(=O)N[C@@H](Cc2ccccc2)C(=O)N[C@H](C(=O)N[C@@H](CC(N)=O)C(=O)N[C@@H](Cc2c[nH]c3ccccc23)C(=O)N[C@@H](CC(C)C)C(=O)N[C@@H](CC(C)C)C(=O)N[C@@H](C)C(=O)N[C@@H](CCC(N)=O)C(=O)N[C@@H](CCCCN)C(=O)NCC(=O)N[C@@H](CCCCN)C(=O)N[C@@H](CCCCN)C(=O)N[C@@H](CC(N)=O)C(=O)N[C@@H](CC(=O)O)C(=O)N[C@@H](Cc2c[nH]c3ccccc23)C(=O)N[C@@H](CCCCN)C(=O)N[C@@H](Cc2c[nH]cn2)C(=O)N[C@@H](CC(N)=O)C(=O)N[C@H](C(=O)N[C@H](C(=O)N[C@@H](CCC(N)=O)C(=O)O)[C@@H](C)O)[C@@H](C)CC)C(C)C)[C@@H](C)CC)CCCCC1 [Example 45, (4Hppa^2, A6c^14)hGIP(2-42)-OH]
half-life at 0.1 mg/mL [2]: 64.2 h | half-life at 0.1 mg/mL [3]: 4.3 h

CC[C@H](C)[C@H](NC(=O)[C@H](CCCCN)NC(=O)[C@H](CC(=O)O)NC(=O)[C@H](CCSC)NC(=O)[C@H](C)NC(=O)[C@@H](NC(=O)C1(NC(=O)[C@H](Cc2ccc(O)cc2)NC(=O)[C@H](CC(=O)O)NC(=O)[C@H](CO)NC(=O)[C@@H](NC(=O)[C@H](Cc2ccccc2)NC(=O)[C@@H](NC(=O)CNC(=O)[C@H](CCC(=O)O)NC(=O)CCc2ccc(O)cc2)[C@@H](C)O)[C@@H](C)CC)CCCCC1)[C@@H](C)CC)C(=O)N[C@@H](Cc1c[nH]cn1)C(=O)N[C@@H](CCC(N)=O)C(=O)N[C@@H](CCC(N)=O)C(=O)N[C@@H](CC(=O)O)C(=O)N[C@@H](Cc1ccccc1)C(=O)N[C@H](C(=O)N[C@@H](CC(N)=O)C(=O)N[C@@H](Cc1c[nH]c2ccccc12)C(=O)N[C@@H](CC(C)C)C(=O)N[C@@H](CC(C)C)C(=O)N[C@@H](C)C(=O)N[C@@H](CCC(N)=O)C(=O)N[C@@H](CCCCN)C(=O)NCC(=O)N[C@@H](CCCCN)C(=O)N[C@@H](CCCCN)C(=O)N[C@@H](CC(N)=O)C(=O)N[C@@H](CC(=O)O)C(=O)N[C@@H](Cc1c[nH]c2ccccc12)C(=O)N[C@@H](CCCCN)C(=O)N[C@@H](Cc1c[nH]cn1)C(=O)N[C@@H](CC(N)=O)C(=O)N[C@H](C(=O)N[C@H](C(=O)N[C@@H](CCC(N)=O)C(=O)O)[C@@H](C)O)[C@@H](C)CC)C(C)C [Example 46, (4Hppa^2, A6c^11)hGIP(2-42)-OH]
half-life at 0.1 mg/mL [2]: 30.8 h | half-life at 0.1 mg/mL [3]: 11.9 h
